# Measurements taken from patent publication US11541101B1, “LEMD3 antagonizes TGF-beta-driven Smad2/3 transcription in a stiffness-dependent fashion in both the nucleus and cytosol” (University of Virginia Patent Foundation, priority 2018, dated 2023).
# Peptide text beside a SMILES is read from it. * marks the point of attachment. Cbz = O=C(OCc1ccccc1)*
# How the values were obtained:
# LEMD3 = assay: Recombinant LEMD3 fragment western blots (FLAG and V5 tags); type: cell-based, human; conditions: pFLAG-LEMD3-V5 transfected cells, inhibitor treatment, FIG. 4E
# From the text: Western Blotting—For non-phosphoprotein western blots: cell lysates from tissue culture plastic or from 2 or 25 kPa, […] Petrisoft dishes (Matrigen, Brea, Calif.) were either: harvested directly in 4× protein loading buffer (Licor, Lincoln, Nebr.) supplemented with protease and phosphatase in-hibitors (#A32959, ThermoFisher, Waltham, Mass.) according to the manufacturer's instructions; or, processed with the NE-PER compartment isolation kit (ThermoFisher, Waltham, Mass.) according to the manufacturer's instructions. Lysates were treated with 0.3 μL of benzonuclease (ThermoFisher, Waltham, Mass.) for 15 minutes at room temperature with vigorous shaking. Samples were heated to 95 C for 5 minutes and run on a 4-12% Bis-Tris gel in 1×MES buffer and run for 70 minutes at 150V. The gel was then transferred to a nitro-cellulose membrane using the XCell Blot Module (ThermoFisher, Waltham, Mass.) at 25V for 65 min-utes. Membranes were air-dried for an hour, blocked with 5% non-fat milk in 1×PBS for an hour at room temperature, and then incubated with primary antibodies as described in Table 3 in 1×PBS-T with 1% milk for 16-24 hours at 4 C. Near-IR or HRP conjugated secondaries as described in Table 4 were then incubated with the blot and imaged subsequently on either an Odyssey CLx system for near-IR dyes (Licor, Lincoln, Nebr.) or a ChemiDoc MP system (Bio-Rad, Hercules, Calif.) with SuperSignal West Femto reagents (ThermoFisher, Waltham, Mass.) for HRP secondaries according to the manufacturer's instructions. Band analysis was performed using the associated Licor or Biorad software.
# For recombinant LEMD3 western blots: Two samples of HFFs were prepared and electro-porated as above and plated onto each plastic or hydrogel surface for 12 hours (protease inhibitor experiments) or 24 hours (LEMD3 fragment abundance and deletion mutant experiments) before harvesting. qPCR—RNA was isolated from cultured cells using RNEasy Plus Mini kits (Qiagen, Hilden, Germany) according to the manufacturer's instructions. cDNA libraries were constructed using RT2 First Strand kit (Qiagen, Hilden, Germany) according to the manufacturer's instruction. 25 μL qPCR reactions were prepared using SYBR Green Master Mix (ThermoFisher, Waltham, Mass.) with 250 nM primers, listed in Table 3 and 10 ng input cDNA. Reactions were carried out on a StepOnePlus (ThermoFisher, Waltham, Mass.) for 40 cycles. Melt curves were visually inspected after each run to confirm a single, defined peak in the derivated intensity plot. Data from each run was imported into LinRegPCR, which performed baseline correction and measured PCR efficiency by amplicon group as described in (81). The relative number of transcripts was calculated by dividing the Cq threshold by the PCR efficiency for the reaction raised to the power of Cq, the cycle number at which the threshold is reached for a given target. For relative quantification be-tween conditions, LEMD3 transcripts were either: normalized for each condition to the mean of two reference genes, 18S and ACTB, if the samples were all from a single stiffness condition; or, normalized to 18S alone if substrate stiffness was an experimental condition.
# [1] = pulmonary fibrosis; cited from earlier work
# Smad-driven luciferase = Smad-driven luciferase assay on substrates of varying stiffness; type: cell-based, human
# Protocol: Smad-Driven Luciferase Assays—HFFs were transfected with Cignal Lenti Reporter virus (Qiagen, Hilden, Germany) with a MOI of 40 and subsequently selected using 400 ng/mL puromycin until untransduced HFFs died. Stably transfected HFFs, with or without additional LEMD3-focused genetic treatments as described above, were plated at 10,000 cells/well on a HTS plate (Matrigen, Brea, Calif.) containing glass surfaces and polyacrylamide gels, which ranged in stiffness from 0.2 kPa to 50 kPa, all functionalized with 10 μg/mL plasma-purified human fibronectin according to the manufacturer's instruction. Cells adhered to the surfaces for 4 hours in serum-free DMEM supplemented with 1% BSA and 1% penicillin/streptomycin. Media was then supplemented with the desired amounts of TGFβ and, when applicable, with cytoskeletal agents as described in the results. HFFs were then incubated for 16 hours at 37 C before the luciferase re-action. Wells were supplemented to 2 mM VivoGlo d-luciferin (Promega, Madison, Wis.) using a plate reader controlled auto-injector system and light production was subsequently quantified every 5 minutes for 30 minutes on a Synergy H4 plate reader (BioTek, Winooski, Vt.). The raw luciferase signal was the median intensity measured over this timecourse minus the intensity from luciferase-transfected cells not treated with TGFβ to account for any TGFβ elaborated and activated by the cells in situ. Cells were then fixed with 4% paraformaldehyde, permeabilized with 0.1% Triton X-100, and then stained with 1:10,000 Hoechst 33342 in 1×PBS for 30 minutes at room temperature (ThermoFisher, Waltham, Mass.). The raw luciferase signal was then normalized to the nuclear signal, which was inside a linear standard curve form cells plated on glass and on polyacrylamide within each plate. Data for each condition was then fit to a three-parameter logistic equation using a least-squares minimization fit in Prism (Graph-Pad, La Jolla, Calif.). […] Otherwise, the trends across the maximal luciferase signal (“Top” variable from the model) or the mid-transition point observed between “Bottom” and “Top” signals (“EC50” variable from the model, called “transition point” in text), were statistically compared using an ANOVA with “Test for Trends,” which restricts the hypothesis testing to a particular order of the data-sets (e.g. max luciferase signal as a function of increasing TGFβ dose or transition point as a function of increased LEMD3 expression). Each data point represents at least three biological replicates.
# LEMD3-Smad2/3 complexes = assay: LEMD3-Smad2/3 proximity ligation assay (PLA); type: cell-based, human
# Protocol: In vitro PLA: Protein-protein PLA was per-formed with antibody pairs listed in Table 4 as described in (42) with the following modifications: cells were plated on FN-coated glass or hydrogels (Matrigen, Brea, Calif.). All primary antibody in-cubations were performed for 16-24 hours at 4 C and cells were counter-stained with 1:40 phalloidin-488 or phalloidin-546 in 1×PBS for 30 minutes at room temperature and/or further processed for IF imaging using the procedure recommended in Sigma's PLA Resource Center. For all recombinant LEMD3 and C-terminal fragment experiments, HFFs were electroporated as above and allowed to culture for 24 hours on 10 μg/mL fibronectin coated glass or hydrogels before fixation. For LEMD3-phospho-Smad2/3, LEMD3-Smad2/3+TGFβ and for Smad2/3-Smad4 PLA assays: cells were treated 90 minutes before fixation with 50 μg/mL for LEMD3- and CTF-Smad2/3 assays, 100 μg/mL TGFβ for LEMD3-phospho-Smad2/3 experiments and 500 μg/mL TGFβ for Smad2/3-Smad4 experiments. For FLAG post-staining of PLA processed tissues, cells were blocked with unlabelled AffiniPure donkey anti-rabbit antibodies (Jackson ImmunoResearch, West Grove, Pa.) at a 1:10 dilution in 1×PBS-T at room temperature for 1 hour before further IF processing with 1:1000 rabbit anti-FLAG (#F7425, Sigma-Aldrich, Darmstadt, Germany) for 1 hour in PBS-T at room temperature. Following three washes with PBS-T for 5 minutes, each sample was stained with 1:500 goat anti-rabbit 546 in PBS-T for 1 hour at room temperature, washed again and then counter-stained as above. For V5 post-staining of PLA processed samples, cells were incubated with 1:200 647 labelled anti-V5 antibody (R&D Systems, Minneapolis, Minn.) diluted in PBS-T at room tem-perature for 1 hour before washing three times in PBS-T for 5 minutes each and then counter-stained as above. Imaging and analysis were performed as described for high-resolution ex vivo PLA signals except that no tissue autofluorescence signal was measured or needed to be subtracted and, when appro-priate, other IF signal (e.g. FLAG) were measured in parallel. For cells on Matrigen HTS plates (FIGS. 2c & 2d), the confluence of cells prevented identifying individual cell boundaries. Instead the PLA signal was quantified as the PLA volume divided by the nuclear intensity for each image. Each data point represents at least 3 unique surfaces with at least 12 cells measured per surface. For Smad2/3-Smad4 experiments, only two independent hydrogels were analyzed for the “CTF 500 μg/mL” and “Neon 500 μg/mL” groups due to loss of hydrogels during processing. Each bar in FIG. 5D represents the mean with standard error of the mean for all the cells analyzed from that condition.
# [2] = system: LEMD3-phospho-Smad2/3 interactions; assay: LEMD3-phospho-Smad2/3 PLA; type: cell-based, human; conditions: 100 μg/mL, HFFs on glass, vs untreated fibroblasts, p=0.0333
# Protocol: (§1) In vitro PLA: Protein-protein PLA was per-formed with antibody pairs listed in Table 4 as described in (42) with the following modifications: cells were plated on FN-coated glass or hydrogels (Matrigen, Brea, Calif.). All primary antibody in-cubations were performed for 16-24 hours at 4 C and cells were counter-stained with 1:40 phalloidin-488 or phalloidin-546 in 1×PBS for 30 minutes at room temperature and/or further processed for IF imaging using the procedure recommended in Sigma's PLA Resource Center. […] Imaging and analysis were performed as described for high-resolution ex vivo PLA signals except that no tissue autofluorescence signal was measured or needed to be subtracted and, when appro-priate, other IF signal (e.g. FLAG) were measured in parallel. […] Instead the PLA signal was quantified as the PLA volume divided by the nuclear intensity for each image. Each data point represents at least 3 unique surfaces with at least 12 cells measured per surface. For Smad2/3-Smad4 experiments, only two independent hydrogels were analyzed for the “CTF 500 μg/mL” and “Neon 500 μg/mL” groups due to loss of hydrogels during processing. Each bar in FIG. 5D represents the mean with standard error of the mean for all the cells analyzed from that condition.
# Smad2/3-Smad4 complexes = assay: Smad2/3-Smad4 PLA; type: cell-based, human; conditions: 500 μg/mL, HFFs on 1 kPa hydrogels, relative to untreated HFFs, p=0.001
# Protocol: as §1
# Smad2/3 = assay: V5-Smad2/3 PLA with recombinant LEMD3 / CTF; type: cell-based, human; conditions: 50 μg/mL, 1 kPa or 25 kPa substrates, p=0.98 and p=0.99
# Protocol: as §1
# Smad3 phosphorylation = assay: phospho-Smad3 to total Smad3 ratio by western blot; type: cell-based, human; conditions: 100 μg/mL for 90 minutes, relative to untreated HFFs, p=0.0506
# [3] = 10 μM, relative to HFFs treated with TGFβ alone, FIG. 1D
molecule,measurement,setting,value
"O=c1oc(Cl)c(Cl)c2ccccc12 [DCI, 3,4 dichloroisocoumarin]",60 kDa FLAG fragment relative to full length,LEMD3,reduced
"CCOC(=O)[C@H]1O[C@@H]1C(=O)N[C@@H](CC(C)C)C(=O)NCCC(C)C [E64d, E-64D]",85 kDa V5 fragment abundance,LEMD3,potentiated
CC(C)C[C@@H](C=O)NC(=O)[C@H](CC(C)C)NC(=O)[C@H](CC(C)C)NC(=O)OCc1ccccc1 [MG-132] (Cbz-Leu-Leu-Leu-aldehyde),60 kDa FLAG fragment relative to full length,LEMD3,also reduced
CNC(=O)C(CCc1ccccc1)NC(=O)C(CC(=O)NO)CC(C)C (stereo not drawn) [MMPi],85 kDa V5 fragment abundance,LEMD3,potentiated
Cc1ccc(=O)n(-c2ccccc2)c1 [Pirfenidone],disease progression,[1],slowing of disease progression
"Cc1ccc2c(c1)C(=O)C1(O)CCN(c3ccccc3)C1=N2 (stereo not drawn) [blebbistatin, Blebbistatin]",maximal luminescence,Smad-driven luciferase; [3],nor increase the maximal luminescence
same,transition point,Smad-driven luciferase; [3],did not significantly shift
"C=C1[C@@H](C)[C@H]2[C@H](Cc3ccccc3)NC(=O)[C@]23[C@H](OC(C)=O)/C=C/[C@@](C)(O)C(=O)[C@@H](C)C/C=C/[C@H]3[C@@H]1O [cytochalasin D, Cytochalasin D]",luminescent profile over increasing ECM stiffness,"Smad-driven luciferase; 2 μM, FIG. 1D, data did not converge to a sigmoidal model","low, flat luminescent profile"
same,total frequency of LEMD3-Smad2/3 complexes,"LEMD3-Smad2/3 complexes; 2 μM for 90 minutes, fibroblasts on glass, p=0.0089",increase
same,"frequency of LEMD3-Smad2/3 complexes, cytosolic compartment","LEMD3-Smad2/3 complexes; 2 μM for 90 minutes, glass, p=0.0871",also increased
same,"frequency of LEMD3-Smad2/3 complexes, nuclear compartment","LEMD3-Smad2/3 complexes; 2 μM for 90 minutes, glass, p=0.5657",also increased
"C/C1=C\[C@H](C)C[C@H](C)OC(=O)C[C@H](c2ccc(O)cc2)NC(=O)[C@@H](Cc2c(Br)[nH]c3ccccc23)N(C)C(=O)[C@H](C)NC(=O)[C@@H](C)C1 [jasplakinolide, Jasplakinolide]","LEMD3-Smad2/3 interactions, total","LEMD3-Smad2/3 complexes; 100 nM and 200 nM for 2 hours, 1 kPa hydrogels, vs DMSO p<0.0001",dose-dependent decrease
same,"LEMD3-Smad2/3 complex formation, cytoplasm","LEMD3-Smad2/3 complexes; 100 nM and 200 nM, 1 kPa hydrogels, vs DMSO p<0.0001",Significant reductions
same,"LEMD3-Smad2/3 complex formation, nucleus","LEMD3-Smad2/3 complexes; 100 nM p=0.0466, 200 nM p=0.002 vs DMSO, 1 kPa hydrogels",Significant reductions
CC[C@H](CO)Nc1nc(NCc2ccccc2)c2ncn(C(C)C)c2n1 [roscovitine],46 kDa V5 fragment abundance,LEMD3,significantly increasing
same,60 kDa FLAG fragment relative to full length,LEMD3,significantly reducing
"TGFβ: Recombinant human TGF-β, R&D Systems 240-B",LEMD3-phospho-Smad2/3 interactions,[2],significantly higher
same,TGFβ dose-response of luminescence,"Smad-driven luciferase; HFFs on stiff substrates, p<0.0001, FIG. 1B",increasing luminescence with increasing TGFβ dose
same,shift of the sigmoid transition point with increasing pg/mL doses,"Smad-driven luciferase; HFFs, p=0.07, FIG. 1B",shift the transition point of the sigmoid towards softer substrates
same,stiffness at which transition points occurred,Smad-driven luciferase; pg/mL dose-range of TGFβ,1-4 kPa
same,Smad2/3-Smad4 complexes,Smad2/3-Smad4 complexes,increase
same,CTF-Smad2/3 interaction frequency with TGFβ dosing,Smad2/3,did not significantly vary
same,ratio of phospho-Smad3 to total Smad3,Smad3 phosphorylation,increased the ratio of phospho-Smad3 to total Smad3
same,LEMD3-Smad2/3 interactions with TGFβ dosing,"LEMD3-Smad2/3 complexes; 50 μg/mL, 1 kPa and 25 kPa hydrogels",unperturbed by TGFβ dosing
